Measurements: the supplement of paper PMC10307832

What was measured:
Experiment in all cases: relative viability (nuclei count vs DMSO), 5 days (fraction); higher = more cells survive
[1] = tested on: COR-L 105
In short: (§1)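 Relative viability divides the nuclei count in treated wells by that in vehicle wells. Lung cancer cell lines were seeded in 1536-well plates, dosed by pin tool the next day, and fixed and stained after 5 days in one step with final 0.05% Triton X-100, 1% formaldehyde and 1 ug/ml Hoechst. Dosing was a single drug or a fixed anchor-drug dose plus five library-drug doses (not always all listed) in √10 steps, and values are medians of duplicate plates imaged at 4×.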

[2] = tested on: COR-L23
In short: as §1

[3] = tested on: HARA
In short: as §1

[4] = tested on: HCC-15
In short: as §1

[5] = tested on: HOP-62
In short: as §1

[6] = tested on: NCI-H1355
In short: as §1

[7] = tested on: NCI-H1395
In short: as §1

[8] = tested on: NCI-H1734
In short: as §1

[9] = tested on: NCI-H1755
In short: as §1

[10] = tested on: NCI-H1792
In short: as §1

[11] = tested on: NCI-H1793
In short: as §1

[12] = tested on: NCI-H1993
In short: as §1

[13] = tested on: NCI-H2009
In short: as §1

[14] = tested on: NCI-H2170
In short: as §1

[15] = tested on: NCI-H2228
In short: as §1

[16] = tested on: NCI-H2347
In short: as §1

[17] = tested on: NCI-H358
In short: as §1

[18] = tested on: NCI-H647
In short: as §1

[19] = tested on: NCI-H838
In short: as §1

[20] = tested on: SK-MES-1
In short: as §1

[21] = tested on: UMC-11
In short: as §1

COc1nc(C)cnc1NS(=O)(=O)c1cccnc1-c1ccc(-c2nnco2)cc1 [Zibotentan] + CS(=O)(=O)CCNCc1ccc(-c2ccc3ncnc(Nc4ccc(OCc5cccc(F)c5)c(Cl)c4)c3c2)o1 [Lapatinib] (partner 2 µM)
relative viability ([1]; first compound 0.08 µM): 0.394 | relative viability ([1]; first compound 0.253 µM): 0.35 | relative viability ([1]; first compound 0.8 µM): 0.394 | relative viability ([1]; first compound 2.53 µM): 0.4 | relative viability ([2]; first compound 0.08 µM): 1.21 | relative viability ([2]; first compound 0.253 µM): 0.849 | relative viability ([2]; first compound 0.8 µM): 0.922 | relative viability ([2]; first compound 2.53 µM): 0.798 | relative viability ([3]; first compound 0.08 µM): 0.734 | relative viability ([3]; first compound 0.253 µM): 0.813 | relative viability ([3]; first compound 0.8 µM): 0.742 | relative viability ([3]; first compound 2.53 µM): 0.837 | relative viability ([4]; first compound 0.08 µM): 0.954 | relative viability ([4]; first compound 0.253 µM): 0.858 | relative viability ([4]; first compound 0.8 µM): 0.951 | relative viability ([4]; first compound 2.53 µM): 0.828 | relative viability ([5]; first compound 0.08 µM): 0.957 | relative viability ([5]; first compound 0.253 µM): 1.12 | relative viability ([5]; first compound 0.8 µM): 1.22 | relative viability ([5]; first compound 2.53 µM): 1.25 | relative viability ([6]; first compound 0.08 µM): 1.01 | relative viability ([6]; first compound 0.253 µM): 1.03 | relative viability ([6]; first compound 0.8 µM): 0.946 | relative viability ([6]; first compound 2.53 µM): 0.977 | relative viability ([7]; first compound 0.08 µM): 1.08 | relative viability ([7]; first compound 0.253 µM): 0.883 | relative viability ([7]; first compound 0.8 µM): 0.952 | relative viability ([7]; first compound 2.53 µM): 1.08 | relative viability ([8]; first compound 0.08 µM): 1.2 | relative viability ([8]; first compound 0.253 µM): 1.04 | relative viability ([8]; first compound 0.8 µM): 0.996 | relative viability ([8]; first compound 2.53 µM): 1.19 | relative viability ([9]; first compound 0.08 µM): 1.06 | relative viability ([9]; first compound 0.253 µM): 0.988 | relative viability ([9]; first compound 0.8 µM): 1.08 | relative viability ([9]; first compound 2.53 µM): 1.05 | relative viability ([10]; first compound 0.08 µM): 1.01 | relative viability ([10]; first compound 0.253 µM): 0.896 | relative viability ([10]; first compound 0.8 µM): 0.816 | relative viability ([10]; first compound 2.53 µM): 0.848 | relative viability ([11]; first compound 0.08 µM): 0.903 | relative viability ([11]; first compound 0.253 µM): 0.645 | relative viability ([11]; first compound 0.8 µM): 0.596 | relative viability ([11]; first compound 2.53 µM): 0.938 | relative viability ([12]; first compound 0.253 µM): 0.792 | relative viability ([12]; first compound 0.8 µM): 0.88 | relative viability ([12]; first compound 2.53 µM): 0.768 | relative viability ([13]; first compound 0.08 µM): 0.921 | relative viability ([13]; first compound 0.253 µM): 0.82 | relative viability ([13]; first compound 0.8 µM): 1 | relative viability ([13]; first compound 2.53 µM): 1.02 | relative viability ([14]; first compound 0.08 µM): 0.27 | relative viability ([14]; first compound 0.253 µM): 0.264 | relative viability ([14]; first compound 0.8 µM): 0.251 | relative viability ([14]; first compound 2.53 µM): 0.285 | relative viability ([15]; first compound 0.08 µM): 1.41 | relative viability ([15]; first compound 0.253 µM): 1 | relative viability ([15]; first compound 0.8 µM): 0.989 | relative viability ([15]; first compound 2.53 µM): 1.1 | relative viability ([16]; first compound 0.08 µM): 1.05 | relative viability ([16]; first compound 0.253 µM): 0.941 | relative viability ([16]; first compound 0.8 µM): 1.19 | relative viability ([16]; first compound 2.53 µM): 0.943 | relative viability ([17]; first compound 0.08 µM): 0.453 | relative viability ([17]; first compound 0.8 µM): 0.469 | relative viability ([17]; first compound 2.53 µM): 0.503 | relative viability ([18]; first compound 0.08 µM): 1.23 | relative viability ([18]; first compound 0.253 µM): 0.924 | relative viability ([18]; first compound 0.8 µM): 0.968 | relative viability ([18]; first compound 2.53 µM): 1.06 | relative viability ([19]; first compound 0.08 µM): 0.938 | relative viability ([19]; first compound 0.253 µM): 0.838 | relative viability ([19]; first compound 0.8 µM): 0.922 | relative viability ([19]; first compound 2.53 µM): 1.06 | relative viability ([20]; first compound 0.08 µM): 0.505 | relative viability ([20]; first compound 0.253 µM): 0.453 | relative viability ([20]; first compound 0.8 µM): 0.498 | relative viability ([20]; first compound 2.53 µM): 0.509 | relative viability ([21]; first compound 0.08 µM): 0.919 | relative viability ([21]; first compound 0.253 µM): 0.86 | relative viability ([21]; first compound 0.8 µM): 0.967 | relative viability ([21]; first compound 2.53 µM): 1.06

COc1nc(C)cnc1NS(=O)(=O)c1cccnc1-c1ccc(-c2nnco2)cc1 [Zibotentan] + CS(=O)(=O)N1CCN(Cc2cc3nc(-c4cccc5[nH]ncc45)nc(N4CCOCC4)c3s2)CC1 [Pictilisib] (partner 1 µM)
relative viability ([1]; first compound 0.08 µM): 0.523 | relative viability ([1]; first compound 0.253 µM): 0.357 | relative viability ([1]; first compound 0.8 µM): 0.477 | relative viability ([1]; first compound 2.53 µM): 0.502 | relative viability ([2]; first compound 0.08 µM): 0.728 | relative viability ([2]; first compound 0.253 µM): 0.662 | relative viability ([2]; first compound 0.8 µM): 0.757 | relative viability ([2]; first compound 2.53 µM): 0.921 | relative viability ([3]; first compound 0.08 µM): 0.443 | relative viability ([3]; first compound 0.253 µM): 0.438 | relative viability ([3]; first compound 0.8 µM): 0.351 | relative viability ([3]; first compound 2.53 µM): 0.57 | relative viability ([4]; first compound 0.08 µM): 0.763 | relative viability ([4]; first compound 0.253 µM): 0.667 | relative viability ([4]; first compound 0.8 µM): 0.687 | relative viability ([4]; first compound 2.53 µM): 0.817 | relative viability ([5]; first compound 0.08 µM): 0.687 | relative viability ([5]; first compound 0.253 µM): 0.769 | relative viability ([5]; first compound 0.8 µM): 0.752 | relative viability ([5]; first compound 2.53 µM): 0.851 | relative viability ([6]; first compound 0.08 µM): 0.403 | relative viability ([6]; first compound 0.253 µM): 0.424 | relative viability ([6]; first compound 0.8 µM): 0.431 | relative viability ([6]; first compound 2.53 µM): 0.436 | relative viability ([7]; first compound 0.08 µM): 0.789 | relative viability ([7]; first compound 0.253 µM): 0.546 | relative viability ([7]; first compound 0.8 µM): 0.606 | relative viability ([7]; first compound 2.53 µM): 0.541 | relative viability ([8]; first compound 0.08 µM): 0.516 | relative viability ([8]; first compound 0.253 µM): 0.442 | relative viability ([8]; first compound 0.8 µM): 0.461 | relative viability ([8]; first compound 2.53 µM): 0.43 | relative viability ([9]; first compound 0.08 µM): 0.444 | relative viability ([9]; first compound 0.253 µM): 0.461 | relative viability ([9]; first compound 0.8 µM): 0.382 | relative viability ([9]; first compound 2.53 µM): 0.47 | relative viability ([10]; first compound 0.08 µM): 0.275 | relative viability ([10]; first compound 0.253 µM): 0.234 | relative viability ([10]; first compound 0.8 µM): 0.257 | relative viability ([10]; first compound 2.53 µM): 0.246 | relative viability ([11]; first compound 0.08 µM): 0.429 | relative viability ([11]; first compound 0.253 µM): 0.306 | relative viability ([11]; first compound 0.8 µM): 0.391 | relative viability ([11]; first compound 2.53 µM): 0.345 | relative viability ([12]; first compound 0.253 µM): 0.736 | relative viability ([12]; first compound 0.8 µM): 0.748 | relative viability ([12]; first compound 2.53 µM): 0.796 | relative viability ([13]; first compound 0.08 µM): 0.889 | relative viability ([13]; first compound 0.253 µM): 0.774 | relative viability ([13]; first compound 0.8 µM): 0.822 | relative viability ([13]; first compound 2.53 µM): 0.886 | relative viability ([14]; first compound 0.08 µM): 0.282 | relative viability ([14]; first compound 0.253 µM): 0.295 | relative viability ([14]; first compound 0.8 µM): 0.316 | relative viability ([14]; first compound 2.53 µM): 0.368 | relative viability ([15]; first compound 0.08 µM): 0.45 | relative viability ([15]; first compound 0.253 µM): 0.438 | relative viability ([15]; first compound 0.8 µM): 0.355 | relative viability ([15]; first compound 2.53 µM): 0.317 | relative viability ([16]; first compound 0.08 µM): 0.601 | relative viability ([16]; first compound 0.253 µM): 0.547 | relative viability ([16]; first compound 0.8 µM): 0.621 | relative viability ([16]; first compound 2.53 µM): 0.769 | relative viability ([17]; first compound 0.08 µM): 0.318 | relative viability ([17]; first compound 0.8 µM): 0.395 | relative viability ([17]; first compound 2.53 µM): 0.378 | relative viability ([18]; first compound 0.08 µM): 0.391 | relative viability ([18]; first compound 0.253 µM): 0.355 | relative viability ([18]; first compound 0.8 µM): 0.41 | relative viability ([18]; first compound 2.53 µM): 0.388 | relative viability ([19]; first compound 0.08 µM): 0.451 | relative viability ([19]; first compound 0.253 µM): 0.406 | relative viability ([19]; first compound 0.8 µM): 0.582 | relative viability ([19]; first compound 2.53 µM): 0.518 | relative viability ([20]; first compound 0.08 µM): 0.344 | relative viability ([20]; first compound 0.253 µM): 0.356 | relative viability ([20]; first compound 0.8 µM): 0.388 | relative viability ([20]; first compound 2.53 µM): 0.428 | relative viability ([21]; first compound 0.08 µM): 0.746 | relative viability ([21]; first compound 0.253 µM): 0.809 | relative viability ([21]; first compound 0.8 µM): 0.837 | relative viability ([21]; first compound 2.53 µM): 0.777
